Assay results: PMC9405123, “Design, Synthesis and Mechanistic Studies of Novel Isatin-Pyrazole Hydrazone Conjugates as Selective and Potent Bacterial MetAP Inhibitors” (Antibiotics, 2022)
Values after ≈ are worked out from the molar mass of the structure shown.

Key:
Cytotoxicity assay (MTT) = assay type: cell-based; settings: human, HEK293 cells, read-out: viable HEK293 cells
Procedure: PS9 was tested for cytotoxicity against human embryonic kidney (HEK293) cells using a colorimetric MTT assay. HEK293 cells were grown at 37 °C in a humidified environment of 5% CO2 in DMEM media enriched with 10% FBS and 1% penicillin, streptomycin solution. HEK293 cells (1 × 10^4) were seeded in triplicate and incubated overnight in a CO2 incubator. After the treatment (5–200 μM) with PS9, the cells were kept for 48 h at 37 °C. Freshly prepared 5 mg/mL MTT was supplied to the samples and kept on incubation at 37 °C for 4–5 h. DMSO was added to solubilize the formazan crystals. A microplate reader (Bio-Rad, Hercules, CA, USA) was used for taking absorbance at 570 nm and all the experiments were done in triplicate.

P. aeruginosa [1] = assay: Growth kinetics; assay type: cell-based, Pseudomonas aeruginosa
Procedure: Bacterial strains were tested as mentioned in Habib et al.. Briefly, ½ MIC, MIC and 2MIC values of PS9 were taken to assess the growth of bacterial strains whereas untreated cells and media were taken as positive and negative control, respectively.

LG1 = assay: MIC on environmental MDR isolate (microdilution)
SH34 = assay: MIC on environmental MDR isolate (microdilution); settings: Serratia marcescens
LG51 = assay: MIC on environmental MDR isolate (microdilution); settings: Escherichia coli
SH28 [2] = assay: MIC on environmental MDR isolate (microdilution); settings: Aeromonas caviae
E. faecalis [3] = assay: Time-kill curve assay; assay type: cell-based, Enterococcus faecalis
Procedure: (§1) A time–kill curve study was performed against bacterial strains (E. coli, E. faecalis, K. pneumonia and P. aeruginosa) to determine whether compound PS9 is bactericidal or bacteriostatic. MIC, 2MIC and 4MIC concentrations were employed for the time–kill assay as explained by Ali et al.. Untreated bacterial cells were used as a control. 100 µL aliquot was taken from each flask at regular intervals. An aliquot was further diluted in phosphate buffer saline solution and from each concentration 50 µL aliquot was inoculated on a nutrient agar plate and spread. Colonies were counted after the incubation of the plate at 37 °C. For each strain, the average (mean) colony count data (log10 CFU/mL) was plotted against time.

SH28 [4] = assay: MBC on environmental MDR isolate; settings: Aeromonas caviae
JST63 = assay: MIC on environmental MDR isolate (microdilution)
E. faecalis [5] = assay: Minimum inhibitory concentration (broth dilution); assay type: cell-based; settings: Enterococcus faecalis, alone
E. faecalis [6] = assay: Minimum bactericidal concentration; assay type: cell-based, Enterococcus faecalis
LG33 = assay: MIC on environmental MDR isolate (microdilution); settings: Enterobacter
HK91 [7] = assay: MBC on environmental MDR isolate; settings: Ralstonia
K. pneumoniae = assay: Combination study with AMP or CIP
E. coli = assay: Time-kill curve assay; assay type: cell-based, Escherichia coli
Procedure: as §1

JST78 = assay: MIC on environmental MDR isolate (microdilution); settings: Escherichia coli
HK32 = assay: MIC on environmental MDR isolate (microdilution); settings: Enterobacter cloacae
MtMetAP1c = target: T1, MtMetAP1c (Mycobacterium tuberculosis, UniProt P9WK19); assay: MetAP enzyme inhibition, Morrison Ki (Met-AMC fluorescence); assay type: biochemical, M. tuberculosis; settings: Morrison Ki method
T1 construct: made in house
T1 sequence (P9WK19 whole entry): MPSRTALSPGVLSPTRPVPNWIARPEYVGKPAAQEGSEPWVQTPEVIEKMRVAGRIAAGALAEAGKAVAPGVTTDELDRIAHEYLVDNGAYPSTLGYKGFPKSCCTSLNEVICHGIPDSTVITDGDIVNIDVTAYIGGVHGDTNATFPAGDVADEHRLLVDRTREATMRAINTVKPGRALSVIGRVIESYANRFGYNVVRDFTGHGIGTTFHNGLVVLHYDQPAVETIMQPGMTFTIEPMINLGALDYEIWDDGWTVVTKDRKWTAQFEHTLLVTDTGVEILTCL
Procedure: MetAP appears to serve a vital role in the co- or post-translational modification of proteins, making it essential for bacterial cell metabolism and survival. In this study, all enzymes, which were used for this study, including MtMetAP1c (M. tuberculosis), EfMetAP1a (E. faecalis), SpMetAP1a (S. pneumoniae) and HsMetAP1b (H. sapiens) enzymes, were expressed and purified in our lab as previously reported. All compounds prepared 10 mM stocks in DMSO and were used for enzyme inhibition studies. The concentration of each enzyme is adjusted such that they have similar reaction rates (HsMetAp1b, 1 µM; SpMetAP1a, 5 µM; EfMetAP1a, 1 µM; MtMetAP1c, 1 µM;) as reported earlier. All assays were performed in […] reaction containing 50 mM HEPES (pH 7.5 for SpMetAP1a and HsMetAP1b; 8.0 for EfMetAP1a, MtMetAP1c, […]), 150 mM NaCl, and CoCl2 (three molar equivalents of corresponding enzymes). The reaction was started by adding 50 μM L-Methionine 7-amido-4-methyl coumarin (Met-AMC) and continuously monitoring the fluorescence of released 7-amino-4-methyl coumarin (AMC) (380 nm excitation and 460 nm emission) in a microplate multimode reader (TECAN, Austria). The maximum percentage of inhibition against enzymes is calculated at […] compound concentration. […] The Ki values were determined according to the Morrison method using three different concentrations of substrates and ten different concentrations of the inhibitor. All experiments were performed in triplicate. GraphPad Prism version 8.0.0 (San Diego, CA, USA) was used to determine all the kinetic parameters.

P. aeruginosa [8] = assay: Minimum bactericidal concentration; assay type: cell-based, Pseudomonas aeruginosa; settings: Pseudomonas aeruginosa
HK91 [9] = assay: MIC on environmental MDR isolate (microdilution); settings: Ralstonia
JST61 = assay: MIC on environmental MDR isolate (microdilution); settings: Pantoea agglomerans

Q: Which viability at 48 h, 100 µg/mL (Cytotoxicity assay (MTT); 100 µg/mL) does the source give for `O=C1Nc2ccc(F)cc2/C1=N\NC(=O)c1cc(-c2cccc(Br)c2)n[nH]1` [PS9, (E)-3-(3-Bromophenyl)-N′-(5-Fluoro-2-Oxoindolin-3-Ylidene)-1H-Pyrazole-5-Carbohydrazide] here?
A: The viability at 48 h, 100 µg/mL was over 90%.

Q: And the viability at 48 h (Cytotoxicity assay (MTT); up to 200 µg/mL)?
A: The viability at 48 h was over 75%.

Q: What about the growth (P. aeruginosa [1]; 2MIC and MIC) of the same compound?
A: The growth was “no growth observed up to 24 h”.

Q: And the “time after inoculation at which log phase was observed” value (P. aeruginosa [1]; ½ MIC)?
A: The value was 8 h.

Q: What about the MIC (LG1) of the same compound?
A: Its MIC is 32 µg/mL (≈ 74.7 µM).

Q: And the MIC (SH34)?
A: The MIC was over 1020 µg/mL.

Q: And the MIC (LG51)?
A: Its MIC is 1000 µg/mL (≈ 2340 µM).

Q: And the MIC (SH28 [2])?
A: The MIC was 128 µg/mL (≈ 299 µM).

Q: And the “killing (log10 CFU/mL with time)” value (E. faecalis [3]; 4MIC, after 16 h)?
A: Its value is “significant eradication”.

Q: And the “killing (log10 CFU/mL with time)” value (E. faecalis [3]; MIC, till 16 h)?
A: Its value is “no 100% eradication”.

Q: And the MBC (SH28 [4])?
A: Its MBC is 512 µg/mL (≈ 1200 µM).

Q: What about the MIC (JST63) of the same compound?
A: Its MIC is 1000 µg/mL (≈ 2340 µM).

Q: What about the MIC (E. faecalis [5]) of the same compound?
A: The MIC was 8 µg/mL (≈ 18.7 µM).

Q: What about the “MBC/MIC Ratio (R*)” value (E. faecalis [6]) of the same compound?
A: Its value is 4.

Q: What about the MBC (E. faecalis [6]; Enterococcus faecalis) of the same compound?
A: The MBC was 32 µg/mL (≈ 74.7 µM).

Q: And the MIC (LG33)?
A: Its MIC is 1000 µg/mL (≈ 2340 µM).

Q: What about the MBC (HK91 [7]) of the same compound?
A: The MBC was 16 µg/mL (≈ 37.4 µM).

Q: What about the “MIC in Combination” value (K. pneumoniae; combination PS9 + AMP) of the same compound?
A: Its value is 2 µg/mL.

Q: What about the “MIC in Combination” value (K. pneumoniae; combination PS9 + CIP) of the same compound?
A: Its value is 4 µg/mL.

Q: What about the FICI (K. pneumoniae; combination with AMP) of the same compound?
A: Its FICI is 0.50.

Q: What about the FICI (K. pneumoniae; combination with CIP) of the same compound?
A: Its FICI is 0.50.

Q: And the “killing (log10 CFU/mL with time)” value (E. coli; 4MIC, after 16 h)?
A: The value was “significant eradication”.

Q: And the “killing (log10 CFU/mL with time)” value (E. coli; MIC, till 16 h)?
A: Its value is “no 100% eradication”.

Q: What about the MIC (JST78) of the same compound?
A: The MIC was 1000 µg/mL (≈ 2340 µM).

Q: What about the MIC (HK32) of the same compound?
A: Its MIC is 64 µg/mL (≈ 149 µM).

Q: What about the Ki (MtMetAP1c) of the same compound?
A: Its Ki is 310 nM.

Q: What about the MBC (P. aeruginosa [8]) of the same compound?
A: Its MBC is 16 µg/mL (≈ 37.4 µM).

Q: And the MIC (HK91 [9])?
A: Its MIC is 2 µg/mL (≈ 4.67 µM).

Q: What about the MIC (JST61) of the same compound?
A: Its MIC is 1000 µg/mL (≈ 2340 µM).
